Values quoted from earlier work as cited in patent publication US20110171138A1, “SUBSTANTIALLY PURE DEFERASIROX AND PROCESSES FOR THE PREPARATION THEREOF” (ACTAVIS GROUP PTC EHF, priority 2008, published 2011).

Details: in water and in acid medium; the solubility increasing with pH

solubility: practically insoluble
SMILES: O=C(O)c1ccc(-n2nc(-c3ccccc3O)nc2-c2ccccc2O)cc1 [Deferasirox, 4-[3,5-Bis(2-hydroxyphenyl)-1H-1,2,4-triazol-1-yl]benzoic acid]
